Structures are written as SMILES.

A short description of data set [1]: Glass transition temperature by differential scanning calorimetry. The data set is classed as physicochemical. As for the experimental part:
Glass transition temperatures were measured using differential scanning calorimetry (DSC Q1000, TA Instruments) at a heating rate of 10 K/min from −80 to +40° C. Glass transition temperatures were determined using TA instrument software (TA Advantage) from the middle of the heat capacity curve. The compositions comprising aminopeptide mixtures consistent with this invention were assessed against glycerol and other compositions with amino acids. Water concentration means the water concentration of the composition at the time the glass transition temperature was obtained. Water was evaporated from contained compositions by storing the same at room temperature at a relative humidity of about 33%.
In general terms: Differential scanning calorimetry records heat flow against a reference as temperature is scanned.

Data set [2] concerns Ex-vivo porcine skin. Put plainly: Skin moisturization: Corneometer hydration of treated ex-vivo porcine skin. As to the method: Skin moisturization was assessed in terms of hydration, measured using a Corneometer (Courage+Khazaka, Germany, model CM 825, consistent with the Sorption Desorption Test described in Bioengineering of the Skin:Water and the Stratum Corneum, by G. Borroni et al., Ed by P. Elsner et al., CBC Press, Chapter 18, 1995). Instrument readings typically vary from 5 to 120 units, with small numbers (˜6) typical for nails, higher numbers typical for dry skin (˜10-20), medium numbers typical for hydrated skin (˜40) and large numbers typical for skin immediately after application of water-based humectants (above 100).
Ex-vivo porcine skin (area 1.5 cm×1.5 cm) was treated with 0.1 ml of the compositions identified in Table 1 as well as a 10% glycerol solution and deionized water as the control. Readings were taken before treatments as a baseline and at least 5 measurements were made at the same position at the time intervals shown in the table.
The relative hydration numbers were calculated as 100%*(Ct-C0)/C0, where C0 is the reading before the treatment, and Ct is the reading taken at the time t after treatment.

For data set [3], the system named is stratum corneum. Briefly: Hydration of stratum corneum: water uptake in sorption-desorption cycle (Dynamic Water Sorption Analyzer). The settings on record: 0.12 mL applied. As to the method: The hydration of the stratum corneum was estimated from hysteresis observed during the sorption-desorption cycle. Disks of stratum corneum (6 mm in diameter) were treated with 0.06 mL aminopeptide mixture, glycerol or water at both sides and dried. The samples were then placed in a Dynamic Water Sorption Analyzer and with controlled humidity. When the humidity was increased in small steps (Delta RH=10%) water uptake was measured after 3 hours equilibration for each step. Water uptake is defined as a mass of water per the dry mass of stratum corneum. Table 3 depicts the values of water uptake for sorption and desorption for stratum corneum treated with aminopeptide mixture consistent with this invention (Sample 3), glycerol and stratum corneum treated with deionized water.

Consider `OCC(O)CO` [Glycerol (10%), glycerol], for which the results for the Glass transition temperature in data set [1] (water concentration 0 % in composition at reading) and in data set [1] (water concentration 40 % in composition at reading) were −83 °C and −108 °C, respectively. Further, the “Relative Hydration” value in data set [2] (10 minutes after treatment with 0.1 ml) stood at 23%; in data set [2] (30 minutes after treatment with 0.1 ml), 11%; in data set [2] (60 minutes after treatment with 0.1 ml) it was 10%. In addition, the “change in hydration with respect to the initial hydration number” value in data set [2] (after 10, 30, and 60 minutes of application to model skin, in words) is listed as “lower”. The “Water uptake, desorption” value in data set [3] (relative humidity 20.8 %) was 87.3 mg/g; in data set [3] (relative humidity 31 %) it was 135.34 mg/g; in data set [3] (relative humidity 41 %), 192.06 mg/g; in data set [3] (relative humidity 51 %), 261.90 mg/g; in data set [3] (relative humidity 60.2 %), 366.67 mg/g; in data set [3] (relative humidity 70.35 %), 524.34 mg/g. In addition, the “Water uptake, sorption” value in data set [3] (relative humidity 20.8 %) is listed as 122.22 mg/g; in data set [3] (relative humidity 31 %), 161.38 mg/g; in data set [3] (relative humidity 41 %), 209.84 mg/g; in data set [3] (relative humidity 51 %), 275.13 mg/g; in data set [3] (relative humidity 60.2 %), 366.67 mg/g; in data set [3] (relative humidity 70.35 %), 524.34 mg/g. The “water uptake difference (desorption-sorption)” value in data set [3] (relative humidity 20.8 %) was 34.92 mg/g; in data set [3] (relative humidity 31 %) it was -26.04 mg/g; in data set [3] (relative humidity 41 %), -17.78 mg/g; in data set [3] (relative humidity 51 %), -13.23 mg/g; in data set [3] (relative humidity 60.2 %) it was 0 mg/g; in data set [3] (relative humidity 70.35 %), 0 mg/g.

For the origin of these results see patent US8815800B2, “Moisturizing composition comprising an aminopeptide mixture” (Conopco, Inc., priority 2011, dated 2014).
